Source: patent publication US20220072095A1, “METHODS AND COMPOSITIONS FOR TREATING SKIN DISEASES” (VANDERBILT UNIVERSITY, priority 2018, published 2022)
≈ marks a conversion by molar mass, not a printed value. Bridge positions count the residues as written; N and C are the ends. Peptide text beside a SMILES is read from it.

Assays:
[1] = Solubility of NTM peptides; type: physicochemical; conditions: cSN50: depending on the method of synthesis and purification; read-out: soluble at levels of
Protocol: cSN50.1 is a cyclized peptide having the sequence of cSN50 with the exception that the tyrosine at position 18 of cSN50, adjacent to the first cysteine, has been removed. Methods of making and using cSN50 are described, for example, in U.S. Pat. Nos. 7,553,929 and 6,495,518. The amino acid sequence of cSN50.1 is […] (SEQ ID NO: 2). The tyrosine at position 18 was removed from the sequence of cSN50 to increase solubility. cSN50 is soluble at levels of ranging from 2.0 mg/mL to 40 mg/mL depending on the method of synthesis and purification whereas cSN50.1 is soluble at levels of at least 100 mg/ml. Any mimetics, derivatives, or homologs of cSN50.1 may be used in the compositions, methods, and kits disclosed herein. cSN50.1 is also encompassed by SEQ ID NO: 3, SEQ ID NO: 4 and SEQ ID NO: 5. Additional examples of NTMs include fragment-designed and synthesized peptides in which cargo is incorporated as two, rather than one, modules or cargos derived from intracellular proteins other than NFκB 1. Such additional examples include the sequences of SEQ ID NO: 6, SEQ ID NO: 7, SEQ ID NO: 8, and SEQ ID NO: 9.

Imp beta = Imp beta (Homo sapiens, UniProt Q14974); conditions: cell culture and preclinical studies
Imp beta, sequence (Q14974 whole entry, looked up): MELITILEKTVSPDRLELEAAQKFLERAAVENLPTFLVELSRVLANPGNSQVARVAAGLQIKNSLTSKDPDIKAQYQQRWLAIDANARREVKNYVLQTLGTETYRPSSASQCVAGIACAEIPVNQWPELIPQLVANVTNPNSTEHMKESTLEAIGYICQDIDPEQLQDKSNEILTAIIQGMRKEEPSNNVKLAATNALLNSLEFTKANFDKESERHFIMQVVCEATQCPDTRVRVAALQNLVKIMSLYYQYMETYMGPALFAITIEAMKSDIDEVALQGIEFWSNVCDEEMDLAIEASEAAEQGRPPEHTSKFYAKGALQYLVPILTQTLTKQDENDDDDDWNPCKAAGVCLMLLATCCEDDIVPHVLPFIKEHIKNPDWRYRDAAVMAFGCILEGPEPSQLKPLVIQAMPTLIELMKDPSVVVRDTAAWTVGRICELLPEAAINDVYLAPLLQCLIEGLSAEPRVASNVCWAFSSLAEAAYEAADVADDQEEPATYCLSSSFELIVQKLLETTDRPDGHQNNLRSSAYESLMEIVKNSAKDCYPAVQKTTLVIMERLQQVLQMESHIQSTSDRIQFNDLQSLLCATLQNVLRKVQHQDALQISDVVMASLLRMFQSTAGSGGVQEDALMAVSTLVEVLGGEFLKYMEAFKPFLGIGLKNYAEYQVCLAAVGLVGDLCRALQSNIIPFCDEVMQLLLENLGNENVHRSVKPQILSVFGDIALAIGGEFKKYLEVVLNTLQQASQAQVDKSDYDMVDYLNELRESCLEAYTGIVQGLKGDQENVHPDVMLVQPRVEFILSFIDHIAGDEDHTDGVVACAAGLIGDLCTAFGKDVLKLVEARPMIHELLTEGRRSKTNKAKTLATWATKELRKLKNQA

Row | solubility [1] [mg/mL] | Compound | importin selectivity (Comments) (Imp beta)
1 | 2 to 40 (≈ 0.635 to 12.7 mM) | CSCC[C@@H]1NC(=O)[C@H](CC(C)C)NC(=O)[C@H](CCCCN)NC(=O)[C@H](CCC(N)=O)NC(=O)[C@H](CCCNC(=N)N)NC(=O)[C@H](CCCCN)NC(=O)[C@H](CCCNC(=N)N)NC(=O)[C@H](CCC(N)=O)NC(=O)[C@H](C(C)C)NC(=O)[C@H](Cc2ccc(O)cc2)NC(=O)[C@@H](NC(=O)[C@@H]2CCCN2C(=O)[C@H](C)NC(=O)[C@H](CC(C)C)NC(=O)[C@H](CC(C)C)NC(=O)[C@H](C)NC(=O)[C@H](CC(C)C)NC(=O)[C@H](CC(C)C)NC(=O)[C@@H](NC(=O)[C@H](C)NC(=O)[C@@H]2CCCN2C(=O)[C@H](CC(C)C)NC(=O)[C@H](CC(C)C)NC(=O)[C@H](C)NC(=O)[C@@H](NC(=O)[C@H](C)NC(=O)[C@H](C)N)C(C)C)C(C)C)CSSC[C@@H](C(=O)O)NC(=O)[C@@H]2CCCN2C1=O [cSN50] (H-AAVALLPAVLLALLAPCYVQRKRQKLMPC-OH; disulfide 17-29; N-terminus and C-terminus assumed) | –
2 | ≥ 100 | CSCC[C@@H]1NC(=O)[C@H](CC(C)C)NC(=O)[C@H](CCCCN)NC(=O)[C@H](CCC(N)=O)NC(=O)[C@H](CCCNC(=N)N)NC(=O)[C@H](CCCCN)NC(=O)[C@H](CCCNC(=N)N)NC(=O)[C@H](CCC(N)=O)NC(=O)[C@H](C(C)C)NC(=O)[C@@H](NC(=O)[C@@H]2CCCN2C(=O)[C@H](C)NC(=O)[C@H](CC(C)C)NC(=O)[C@H](CC(C)C)NC(=O)[C@H](C)NC(=O)[C@H](CC(C)C)NC(=O)[C@H](CC(C)C)NC(=O)[C@@H](NC(=O)[C@H](C)NC(=O)[C@@H]2CCCN2C(=O)[C@H](CC(C)C)NC(=O)[C@H](CC(C)C)NC(=O)[C@H](C)NC(=O)[C@@H](NC(=O)[C@H](C)NC(=O)[C@H](C)N)C(C)C)C(C)C)CSSC[C@@H](C(=O)O)NC(=O)[C@@H]2CCCN2C1=O [cSN50.1] (H-AAVALLPAVLLALLAPCVQRKRQKLMPC-OH; disulfide 17-28; N-terminus and C-terminus assumed) | –
3 | – | AAVALLPAVLLALLAPCVQRDEQKLMPC [cSN50.1β] | Imp beta-selective
